Measured values published in patent US20190083521A1, “COMBINATION THERAPY FOR TREATING CANCER” (Epizyme, Inc., priority 2014, published 2019).
Structures can show the parent of a compound that is named as a salt.

test system: MOLM-13 (MLL-AF9) cells; experiment: Combination proliferation assay with Compound A2 (CellTiter-Glo, Chou-Talalay CI); format: cell-based, human; settings: MOLM13; 7 Day Cotreatment Model
Description: The acute myelogenous leukemia cell lines MV4-11 (MLL-AF4) and MOLM-13 (MLL-AF9) were obtained from American Type Culture Collection (ATCC; Rockville, Md.) and Deutsche Sammlung von Mikroorganismen and Zellkulturen (DSMZ; Braunschweig, Germany) respectively.
Studies were performed using MLL-rearranged cell lines in vitro to evaluate the anti-proliferative effect of a combination of two agents together on cell growth. Initial proliferation studies were performed to determine the IC50 of a given compound in each cell line. The cell counts were measured by ATP quantitation using the Promega Cell Titer Glo kit and luminescence values corresponded to the amount of ATP in a given well.
Compounds were evaluated for synergy in the co-treatment phase by testing the compounds in a concentration range which was bracketed around their IC50 values. The compounds were plated to a 96 well plate in a matrix format (FIG. 3) which includes increasing concentrations of each drug in the combination in a constant ratio, in addition to the effect of each compound alone in the study. Cells were seeded and grown in the log-linear phase for 3 or 7 days in the co-treatment phase. Minimum inhibition (DMSO alone) controls were used in each plate to calculate fraction affected (Fa) of a test well. DMSO concentration was kept at 0.1% v/v.
The drug combination analysis was performed utilizing the Chou-Talalay method Synergy was determined using the software package Calcusyn by Biosoft. The combination index (CI) is a quantitative term used to describe the level of synergy or antagonism in a given test system. A combination index less than one indicates synergy, and a CI greater than one indicates antagonism. Further, strong synergism is achieved when the CI value falls below 0.3.
The HP-D300 digital dispenser (Tecan) was used to dispense compounds in a combinatorial matrix. […] Cell viability was measured via ATP content using CellTiter-Glo® (Promega).
Viability was determined using CellTiter-Glo® (Promega).
Cell viability was measured via ATP content using CellTiter-Glo® (Promega).
Proliferation studies were performed using MOLM-13, MV4-11 and SKM-1 cell lines in vitro to evaluate the cancer cell killing effect of a combination of two agents together on cell growth. Initial proliferation studies were performed to determine the IC50 values of a given compound in each cell line. The cell counts were measured by ATP quantitation using the Promega Cell Titer Glo kit and luminescence values correspond to the amount of ATP in a given well.
These studies were performed to evaluate both the combinatorial effect of compounds on cell killing and the durability of the effect by washing out one of the agents.
Compounds evaluated for synergy in the co-treatment phase were tested in a range which was bracketed around the IC50's. The compounds were plated to a 96 well plate in a matrix format which includes increasing concentrations of each drug in the combination in a constant ratio, in addition to the effect of each compound alone in the study. Cells were seeded and grown in the log-linear phase for 3 or 7 days in the cotreatment phase. Maximum and minimum inhibition (DMSO alone) controls were used in each plate to calculate fraction affected (Fa) of a test well. DMSO concentration was kept at 0.1% v/v. The drug combination analysis was performed utilizing the Chou-Talalay method. Synergy was determined using the software package Calcusyn by Biosoft. The combination index (CI) is the term used to describe the level of synergy or antagonism in a given test system. A combination index less than one indicates synergy, and a CI greater than one indicates antagonism.
The drug combination analysis was performed using the Chou-Talalay method. Graphs representing values of combination index (CI) versus Fractional effect (Fa) known as Fa-CI plots were generated and synergy was evaluated.

Molecule	Combination effect with Compound A2 (Table 5)
C[C@@H]1COCCN1c1cc(C2(S(C)(=O)=O)CC2)nc(-c2cccc3[nH]ccc23)n1 [AZ20]	Synergy (Drug synergy was statistically defined by CI values less than 1)
O=C(Nc1ccncc1)c1cc([N+](=O)[O-])ccc1Cl [Compound T0070907]	Additive (additive effect by CI equal to 1)
NC1(c2ccc(-c3nc4ccn5c(=O)[nH]nc5c4cc3-c3ccccc3)cc2)CCC1 [MK2206]	Additive (additive effect by CI equal to 1)
Cn1c(=O)n(-c2ccc(C(C)(C)C#N)cc2)c2c3cc(-c4cnc5ccccc5c4)ccc3ncc21 [BEZ235]	Additive (additive effect by CI equal to 1)

same assay, conditions: MOLM-13 (MLL-AF9); 7 Day Cotreatment Model

Molecule	Combination effect with Compound A2 (Table 4)
CC1(C)CCC(CN2CCN(c3ccc(C(=O)NS(=O)(=O)c4ccc(NCC5CCOCC5)c([N+](=O)[O-])c4)c(Oc4cnc5[nH]ccc5c4)c3)CC2)=C(c2ccc(Cl)cc2)C1 [ABT-199]	Additive--> Synergy
S=c1nc[nH]c2nc[nH]c12 [Mercaptopurine]	Additive--> Synergy
Nc1cccc2c1CN(C1CCC(=O)NC1=O)C2=O (centres unmarked) [Lenalidomide]	Combination Benefit
CC(C)C[C@H](NC(=O)[C@H](Cc1ccccc1)NC(=O)c1cnccn1)B(O)O [Velcade, bortezomib]	Combination Benefit
O=C(CCCCCCC(=O)Nc1ccccc1)NO [Vorinostat]	Additive/Synergy

test system: SKM-1 cells; experiment: Example 6 combination screen: 300 nM EPZ-5676 pre-treatment, second compound 72 h, ATPLite, IC50 shift; format: cell-based, human; settings: not given
Description: Cells were then equilibrated in incubators for 24 hours before treatment with a second compound. Treated assay plates were incubated with a second compound for 72 hours. After this time, plates were developed for endpoint analysis using ATPLite to measure ATP content, which is used as an indicator of cell viability.
“N/D” means that IC50 of the second compound could not be determined for both conditions.

Molecule	Summary of Combination Studies: SKM-1
Arsenic Trioxide	2.0

same assay, conditions: SKM-1 cells; 300 nM EPZ-5676 pre-treatment (4 + 3 days) vs DMSO, then 2nd compound 72 h; ATPLite; IC50 shift of 2nd compound

Molecule	Summary of Combination Studies: SKM-1
N#Cc1c(C2CCNCC2)cc(-c2c(O)cccc2OCC2CC2)nc1N [IKK-2 Inhibitor VIII]	Synergy (considered synergistic if the IC50 value of the second compound decreased by 2-fold or more when EPZ-5676 was added as compared to the DMSO control)
C#Cc1cccc(Nc2ncnc3cc(OCCOC)c(OCCOC)cc23)c1 [Erlotinib Hydrochloride]	Synergy (considered synergistic if the IC50 value of the second compound decreased by 2-fold or more when EPZ-5676 was added as compared to the DMSO control)
CC(C)C[C@H](NC(=O)CNC(=O)c1cc(Cl)ccc1Cl)B(O)O [MLN2238]	Synergy (considered synergistic if the IC50 value of the second compound decreased by 2-fold or more when EPZ-5676 was added as compared to the DMSO control)
NC1(c2ccc(-c3nc4ccn5c(=O)[nH]nc5c4cc3-c3ccccc3)cc2)CCC1 [MK2206]	Synergy (considered synergistic if the IC50 value of the second compound decreased by 2-fold or more when EPZ-5676 was added as compared to the DMSO control)
CC1=C(/C=C/C(C)=C/C=C/C(C)=C/C(=O)O)C(C)(C)CCC1 [Tretinoin]	Synergy (considered synergistic if the IC50 value of the second compound decreased by 2-fold or more when EPZ-5676 was added as compared to the DMSO control)
CCN(CC)CCNC(=O)c1c(C)[nH]c(/C=C2\C(=O)Nc3ccc(F)cc32)c1C [Sunitinib Malate]	2.0
CN(C)C(=O)c1cc2cnc(Nc3ccc(N4CCNCC4)cn3)nc2n1C1CCCC1 [LEE011]	Synergy (considered synergistic if the IC50 value of the second compound decreased by 2-fold or more when EPZ-5676 was added as compared to the DMSO control)
CC(C)CC(=O)Nc1[nH]nc2c1CN(C(=O)C1CCN(C)CC1)C2(C)C [PHA-793887]	Synergy (considered synergistic if the IC50 value of the second compound decreased by 2-fold or more when EPZ-5676 was added as compared to the DMSO control)
CS(=O)(=O)N1CCN(Cc2cc3nc(-c4cccc5[nH]ncc45)nc(N4CCOCC4)c3s2)CC1 [GDC-0941]	Synergy (considered synergistic if the IC50 value of the second compound decreased by 2-fold or more when EPZ-5676 was added as compared to the DMSO control)
COc1ccc(-c2ccc3c(N4CCOC[C@@H]4C)nc(N4CCOC[C@@H]4C)nc3n2)cc1CO [AZD 8055]	Synergy (considered synergistic if the IC50 value of the second compound decreased by 2-fold or more when EPZ-5676 was added as compared to the DMSO control)
CN(C)CC[C@H](CSc1ccccc1)Nc1ccc(S(=O)(=O)NC(=O)c2ccc(N3CCN(Cc4ccccc4-c4ccc(Cl)cc4)CC3)cc2)cc1[N+](=O)[O-] [ABT-737]	Synergy (considered synergistic if the IC50 value of the second compound decreased by 2-fold or more when EPZ-5676 was added as compared to the DMSO control)
O=C(Nc1cccc(Nc2ncc(Br)c(NCCc3cnc[nH]3)n2)c1)N1CCCC1 [BX-912]	Synergy (considered synergistic if the IC50 value of the second compound decreased by 2-fold or more when EPZ-5676 was added as compared to the DMSO control)
C=C[C@@]1(C)CC(=O)[C@]2(O)[C@@]3(C)[C@@H](O)CCC(C)(C)[C@@H]3[C@H](OC(=O)CCN(C)C)[C@H](OC(C)=O)[C@@]2(C)O1.Cl [NKH 477]	Synergy (considered synergistic if the IC50 value of the second compound decreased by 2-fold or more when EPZ-5676 was added as compared to the DMSO control)
Cc1sc2c(c1C)C(c1ccc(Cl)cc1)=N[C@@H](CC(=O)Nc1ccc(O)cc1)c1nnc(C)n1-2 [OTX015]	Synergy (considered synergistic if the IC50 value of the second compound decreased by 2-fold or more when EPZ-5676 was added as compared to the DMSO control)
COc1ccc(Cc2nccc3cc(OC)c(OC)cc23)cc1OC [Papaverine Hydrochloride]	Synergy (considered synergistic if the IC50 value of the second compound decreased by 2-fold or more when EPZ-5676 was added as compared to the DMSO control)
COCc1c(C(C)C)nc(C(C)C)c(/C=C/[C@@H](O)C[C@@H](O)CC(=O)O)c1-c1ccc(F)cc1 [Cerivastatin Sodium]	Synergy (considered synergistic if the IC50 value of the second compound decreased by 2-fold or more when EPZ-5676 was added as compared to the DMSO control)
C=C(c1ccc(C(=O)O)cc1)c1cc2c(cc1C)C(C)(C)CCC2(C)C [Bexarotene]	Synergy (considered synergistic if the IC50 value of the second compound decreased by 2-fold or more when EPZ-5676 was added as compared to the DMSO control)
C[C@H]1C[C@@H]2[C@H]([C@@H](O)C[C@@]3(C)[C@H]2CC[C@]3(O)C(=O)CO)[C@@]2(C)C=CC(=O)C=C12 [Methylprednisolone]	Synergy (considered synergistic if the IC50 value of the second compound decreased by 2-fold or more when EPZ-5676 was added as compared to the DMSO control)
COc1ccc(CCc2nc3cc(-c4c(C)noc4C)ccc3n2C[C@H](C)N2CCOCC2)cc1Cl [SGC-CBP30]	Synergy (considered synergistic if the IC50 value of the second compound decreased by 2-fold or more when EPZ-5676 was added as compared to the DMSO control)
